In patent publication US20230165251A1, “SUBSTITUTED TOLYL FUNGICIDES AND THEIR MIXTURES” (FMC Corporation, priority 2020, published 2023):

Tests used:
[1] = tested on: Phakopsora pachyrhizi; assay: Test D: preventive spray on soybean seedlings, Asian soybean rust; type: in vivo; conditions: Rate 10 ppm
Excerpt: (§1) General protocol for preparing test suspensions for Tests A-F: the test compounds were first dissolved in acetone in an amount equal to 3% of the final volume and then suspended at the desired concentration (in ppm) in acetone and purified water (50/50 mix by volume) containing 250 ppm of the surfactant PEG400 (polyhydric alcohol esters). The resulting test suspensions were then used in Tests A-F.
The test solution was sprayed to the point of run-off on soybean seedlings. The following day the seedlings were inoculated with a spore suspension of Phakopsora pachyrhizi (the causal agent of Asian soybean rust) and incubated in a saturated atmosphere at 22° C. for 24 h and then moved to a growth chamber at 22° C. for 8 days, after which time visual disease ratings were made.
(§2) A rating of 100 indicates 100% disease control and a rating of 0 indicates no disease control (relative to the controls). A dash (-) indicates the compound was not tested.

[2] = tested on: Puccinia recondita f. sp. tritici; assay: Test B: preventive spray on wheat seedlings, wheat leaf rust; type: in vivo; conditions: Rate 10 ppm
Excerpt: as §1
The test solution was sprayed to the point of run-off on wheat seedlings. The following day the seedlings were inoculated with a spore suspension of Puccinia recondita f. sp. tritici (the causal agent of wheat leaf rust) and incubated in a saturated atmosphere at 20° C. for 24 h, and then moved to a growth chamber at 20° C. for 7 days, after which time disease ratings were made.
as §2

Row | SMILES | Test D disease control rating [1] [%] | Test B disease control rating [2] [%]
1 | COC(=O)NCc1cc(-c2ccn(-c3c(F)cc([N+](=O)[O-])cc3Cl)n2)ccc1C [compound 37] | 0 | 26
2 | COC(=O)NCc1cc(-c2ccn(-c3c(C)cc(N)cc3C)n2)ccc1C [compound 38] | 0 | 0
3 | COC(=O)NCc1cc(-c2ccn(-c3c(F)cc(N)cc3Cl)n2)ccc1C [compound 39] | 0 | 0
4 | COC(=O)NCc1cc(-c2ccn(-c3c(C)cc(OC)cc3C)n2)ccc1C [compound 40] | 99 | 0
5 | COC(=O)NCc1cc(-c2ccn(-c3c(Cl)cccc3Cl)n2)ccc1C [compound 44] | 100 | 68
6 | COC(=O)NCc1cc(-c2ccn(-c3c(F)cccc3I)n2)ccc1C [compound 45] | 100 | 0
7 | COC(=O)NCc1cc(-c2ccn(-c3c(F)cccc3Br)n2)ccc1C [compound 46] | 100 | 68
8 | COC(=O)NCc1cc(-c2ccn(-c3c(F)cccc3Cl)n2)ccc1C [compound 47] | 100 | 74
9 | COC(=O)NCc1cc(-c2ccn(-c3c(C)cc(Br)cc3C)n2)ccc1C [compound 48] | 99 | 68
10 | COC(=O)NCc1cc(-c2ccn(-c3c(C)cc(Cl)cc3C)n2)ccc1C [compound 49] | 99 | 68
11 | COC(=O)NCc1cc(-c2ccn(-c3c(F)cc(Br)cc3Cl)n2)ccc1C [compound 50] | 100 | 100
12 | COC(=O)NCc1cc(-c2ccn(-c3c(F)cc(Cl)cc3Cl)n2)ccc1C [compound 51] | 100 | 100
13 | COC(=O)NCc1cc(-c2ccn(-c3c(Br)cccc3I)n2)ccc1C [compound 52] | 99 | 0
14 | COC(=O)NCc1cc(-c2ccn(-c3c(Cl)cc([N+](=O)[O-])cc3Cl)n2)ccc1C [compound 54] | 0 | 0
15 | COC(=O)NCc1cc(-c2ccn(-c3c(Cl)cc(N)cc3Cl)n2)ccc1C [compound 55] | 0 | 0
16 | COC(=O)NCc1cc(-c2ccn(-c3c(Cl)cc(Br)cc3Cl)n2)ccc1C [compound 56] | 100 | 80
17 | COC(=O)NCc1cc(-c2ccn(-c3c(Cl)cc(Cl)cc3Cl)n2)ccc1C [compound 57] | 100 | 74
18 | COC(=O)NCc1cc(-c2ccn(-c3c(Br)cccc3Br)n2)ccc1C [compound 58] | 100 | 68
19 | COC(=O)NCc1cc(-c2ccn(-c3c(Cl)cccc3I)n2)ccc1C [compound 59] | 87 | 45
20 | COC(=O)NCc1cc(-c2ccn(-c3c(Cl)cccc3Br)n2)ccc1C [compound 60] | 100 | 68
21 | COC(=O)NCc1cc(-c2ccn(-c3c(C)cccc3Br)n2)ccc1C [compound 61] | 97 | 68
22 | COC(=O)NCc1cc(-c2ccn(-c3c(F)cc(OCF)cc3F)n2)ccc1C [compound 73] | 100 | 100
23 | COC(=O)NCc1cc(-c2ccn(-c3c(F)cc(C4(C)CC4)cc3F)n2)ccc1C [compound 74] | 100 | 100

Row | SMILES | Test D disease control rating [1] [%] | Test B disease control rating [2] [%]
24 | COC(=O)NCc1cc(-c2ccn(-c3c(F)cc(CF)cc3F)n2)ccc1C [compound 77] | 100 | 100
25 | COC(=O)NCc1cc(-c2cn(-c3c(F)cc(C)cc3F)nn2)ccc1C [compound 119] | 0 | 100
26 | COC(=O)NCc1cc(-c2cn(-c3c(Cl)cc(OC)cc3OC)nn2)ccc1C [compound 120] | 0 | 0
27 | COC(=O)NCc1cc(-c2cn(-c3c(Cl)cc(OC)cc3Cl)nn2)ccc1C [compound 123] | 0 | 0
28 | COC(=O)NCc1cc(-c2cn(-c3c(C)cc(OC)cc3C)nn2)ccc1C [compound 124] | 0 | 0
29 | COC(=O)NCc1cc(-c2cn(-c3c(F)cc(I)cc3F)nn2)ccc1C [compound 125] | 0 | 68
30 | COC(=O)NCc1cc(-c2cn(-c3c(F)cc(Br)cc3F)nn2)ccc1C [compound 126] | 0 | 57
31 | COC(=O)NCc1cc(-c2cn(-c3c(OC)cc(OC)cc3OC)nn2)ccc1C [compound 127] | 0 | 0
32 | COC(=O)NCc1cc(-c2cn(-c3c(Br)cc(OC)cc3Br)nn2)ccc1C [compound 128] | 0 | 0
33 | COC(=O)NCc1cc(-c2cn(-c3c(Br)cc(OC)cc3[N+](=O)[O-])nn2)ccc1C [compound 129] | 0 | 0
34 | COC(=O)NCc1cc(-c2cn(-c3c(F)cc(OC)cc3F)nn2)ccc1C [compound 130] | 0 | 68
35 | COC(=O)NCc1cc(-c2ccn(-c3c(F)cc(C4OCCO4)cc3F)n2)ccc1C [compound 133] | 100 | 99
36 | COC(=O)NCc1cc(-c2ccn(-c3c(Br)cc(I)cc3Br)n2)ccc1C [compound 136] | 59 | 19
37 | CCc1cc(F)c(-n2ccc(-c3ccc(C)c(CNC(=O)OC)c3)n2)c(F)c1 [compound 144] | 100 | 100
38 | CCCc1cc(F)c(-n2ccc(-c3ccc(C)c(CNC(=O)OC)c3)n2)c(F)c1 [compound 145] | 100 | 100
39 | C=Cc1cc(F)c(-n2ccc(-c3ccc(C)c(CNC(=O)OC)c3)n2)c(F)c1 [compound 146] | 100 | 100
40 | CC=Cc1cc(F)c(-n2ccc(-c3ccc(C)c(CNC(=O)OC)c3)n2)c(F)c1 [compound 147] | 100 | 99
41 | COC(=O)NCc1cc(-c2ccn(-c3c(F)cc(N4CCN(C)CC4)cc3F)n2)ccc1C [compound 148] | 0 | 0
42 | COC(=O)NCc1cc(-c2ccn(-c3c(F)cc(N4CCOCC4)cc3F)n2)ccc1C [compound 149] | 99 | 83
43 | COC(=O)NCc1cc(-c2ccn(-c3c(F)cc(N4CCCC4)cc3F)n2)ccc1C [compound 150] | 0 | 68
44 | COC(=O)NCc1cc(-c2ccn(-c3c(F)cc(N4CCCCC4)cc3F)n2)ccc1C [compound 151] | 19 | 68
45 | COC(=O)NCc1cc(-c2ccn(-c3c(F)cc(N(C)C)cc3F)n2)ccc1C [compound 152] | 99 | 98
